We go through one compound from the Kinase Knowledgebase extract (Sharma et al. 2016).

One test concerns the target MAPK14 (UniProt Q16539).
Test [1] deals with MAPK14 (human) (UniProt Q16539). The settings on record: pbmc.
Test [2] shares this target. The settings on record: pbmc. This is another data set of the same source.
A further test has as its system MAPK14 (rat). The conditions noted are these: pbmc.
Another test concerns MAPK14 (dog). The conditions noted are these: pbmc.
Test [3] addresses MAPK14 (human) (UniProt Q16539). The settings on record: pbmc. The source holds these as a separate data set.
Test [4] has as its target MAPK14, Q16539 [p38 beta Inhibition].
In test [5] the target is MAPK14 (human) (UniProt Q16539). The conditions noted are these: pbmc. The source holds these as a separate data set.

Sequence of MAPK14 (human) (Q16539 whole entry, looked up): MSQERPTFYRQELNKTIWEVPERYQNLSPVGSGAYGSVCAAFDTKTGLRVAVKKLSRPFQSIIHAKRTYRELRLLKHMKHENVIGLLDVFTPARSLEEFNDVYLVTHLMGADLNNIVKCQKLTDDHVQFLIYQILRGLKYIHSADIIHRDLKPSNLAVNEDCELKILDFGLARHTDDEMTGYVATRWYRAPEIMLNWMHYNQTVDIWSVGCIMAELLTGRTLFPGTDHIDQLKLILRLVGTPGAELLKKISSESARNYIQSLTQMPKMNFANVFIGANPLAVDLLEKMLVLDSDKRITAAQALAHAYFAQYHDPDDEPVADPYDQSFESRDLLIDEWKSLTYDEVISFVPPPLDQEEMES
Sequence of MAPK14 (Q16539 whole entry, looked up): as above
Sequence of MAPK14, Q16539 [p38 beta Inhibition] (Q16539 whole entry, looked up, change not shown): as the sequence (Q16539 whole entry, looked up) above

As for `OCCC#Cc1nc(-c2ccc(F)cc2)c(-c2ccncc2)n1CCCc1ccccc1`, the 50% inhibitory concentration (IC50) was determined as 1 µM on MAPK14; 0.003 µM against MAPK14 (human) [1]; 0.011 µM against MAPK14 (human) [2]; 0.58 µM with MAPK14 (rat); 0.015 µM in the test on MAPK14 (dog); 0.013 µM against MAPK14 (human) [3]. In addition, the concentration for half-maximal inhibition (IC50) in test [4] turned out to be 11 µM; on MAPK14 (human) [5], 0.006 µM.

As a reminder, the IC50 is the concentration at which inhibition is half-maximal.
